Square brackets hold non-standard residues; d marks the D form. Peptide text beside a SMILES is read from it. Ac6c = NC1(C(=O)O)CCCCC1
Columns and labels:
S. aureus DnaK [1] = target: T1, S. aureus DnaK (Staphylococcus aureus, UniProt P99110); assay: FP peptide binding screening against Cf-ARV-1502; settings: screening: DnaK 16 µmol/L, unlabeled peptide 35 µmol/L, duplicate, below 1 = better than ARV-1502
T1 construct: His6-tag with TEV site ([…]) (N, cleaved yes); made in house; host or cells: E. coli (DE3) Rosetta pLysS
T1 sequence (P99110 whole entry): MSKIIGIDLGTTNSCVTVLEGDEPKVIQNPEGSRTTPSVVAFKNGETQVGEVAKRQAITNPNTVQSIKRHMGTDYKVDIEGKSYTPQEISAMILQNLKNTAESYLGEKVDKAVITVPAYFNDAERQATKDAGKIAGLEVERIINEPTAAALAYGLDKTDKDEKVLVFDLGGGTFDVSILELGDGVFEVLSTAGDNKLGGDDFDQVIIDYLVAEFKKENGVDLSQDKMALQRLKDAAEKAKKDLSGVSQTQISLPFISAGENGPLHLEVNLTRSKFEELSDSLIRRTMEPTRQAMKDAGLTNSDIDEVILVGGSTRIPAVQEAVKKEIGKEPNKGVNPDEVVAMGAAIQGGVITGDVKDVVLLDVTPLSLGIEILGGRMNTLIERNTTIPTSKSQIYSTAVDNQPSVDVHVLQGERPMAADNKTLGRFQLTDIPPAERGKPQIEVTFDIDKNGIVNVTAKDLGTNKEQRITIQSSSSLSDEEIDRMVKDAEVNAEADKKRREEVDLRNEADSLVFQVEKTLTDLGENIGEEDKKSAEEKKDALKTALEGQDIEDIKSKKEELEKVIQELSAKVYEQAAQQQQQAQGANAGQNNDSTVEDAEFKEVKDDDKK

E. coli DnaK [2] = target: T2, E. coli DnaK (Escherichia coli, UniProt P0A6Y8); assay type: binding
T2 construct: His6-tag with TEV site ([…]) (N, cleaved yes); made in house; host or cells: E. coli (DE3) Rosetta pLysS
T2 sequence (P0A6Y8 whole entry): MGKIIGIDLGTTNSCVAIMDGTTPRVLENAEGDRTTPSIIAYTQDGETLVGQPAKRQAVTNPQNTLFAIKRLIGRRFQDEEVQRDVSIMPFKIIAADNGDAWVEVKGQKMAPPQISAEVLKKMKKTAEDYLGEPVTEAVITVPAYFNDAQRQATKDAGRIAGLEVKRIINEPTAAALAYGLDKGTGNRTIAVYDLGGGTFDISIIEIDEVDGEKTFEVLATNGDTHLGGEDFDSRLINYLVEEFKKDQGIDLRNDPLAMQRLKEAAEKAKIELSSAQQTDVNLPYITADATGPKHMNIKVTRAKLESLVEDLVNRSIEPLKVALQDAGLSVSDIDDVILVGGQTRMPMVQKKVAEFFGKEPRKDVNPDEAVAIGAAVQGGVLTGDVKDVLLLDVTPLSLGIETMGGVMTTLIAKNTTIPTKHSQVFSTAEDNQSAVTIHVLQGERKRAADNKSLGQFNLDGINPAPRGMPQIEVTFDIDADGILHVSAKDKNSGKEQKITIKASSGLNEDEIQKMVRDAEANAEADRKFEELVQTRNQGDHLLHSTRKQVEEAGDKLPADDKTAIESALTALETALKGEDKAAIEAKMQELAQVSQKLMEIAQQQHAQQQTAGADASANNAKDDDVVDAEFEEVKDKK
Experimental: The plate was incubated (90 min, 28°C, dark) and Cf-ARV-1502 (80 nmol/L; 10 µL/well) added. […] Each peptide was screened in duplicate. Control samples either lacked the unlabeled peptide (maximum) or contained Cf-ARV-1502 in buffer (minimum).
(§1) The quality of the experimental set up was evaluated by the Z′ factor ([Zhang et al., 1999]) (Supplementary Table S2). […] The obtained FP-values were normalized to the FP-values determined for lead sequence ARV-1502.

E. coli DnaK [3] = target: T2, E. coli DnaK; assay: Competitive fluorescence polarization Ki; assay type: binding; settings: unlabeled peptide competing with Cf-labeled peptide; DnaK 5 µmol/L; 90 + 90 min, 28°C
Experimental: as §1

S. aureus DnaK [4] = target: T1, S. aureus DnaK; assay: Competitive fluorescence polarization Ki; assay type: binding; settings: unlabeled peptide competing with Cf-labeled peptide; DnaK 16 µmol/L; 90 + 90 min, 28°C
Experimental: as §1

[5] = tested on: S. aureus DnaK/DnaJ/GrpE-chaperone system; assay: ATPase activity assay (malachite green), chaperone system; assay type: biochemical, Staphylococcus aureus; settings: peptide screen, 0.3 mmol/L peptide; for ATPase activity of the S. aureus DnaK/DnaJ/GrpE system, normalized to activity without peptide (100%): 37°C, 2 h, triplicates
Experimental: (§2) ATPase activity of E. coli and S. aureus chaperones was studied in the presence of an AMP using a 384-well plate colorimetric assay ([Chang et al., 2008]; [Zahn et al., 2013]). […] The chaperone mix (13.5 µL) was incubated with an aqueous peptide solution (1.5 µL; final concentration 0.3 mmol/L) at 37°C for 30 min in a non-binding 384-well plate (flat bottom, Greiner Bio-One GmbH). Each sample was prepared in triplicates on the same plate. The reaction was started by addition of ATP dissolved in assay buffer (5 µL, 4 mmol/L) and the plate centrifuged (500 × g, 2 min; Allegra™ 21R, Beckmann Coulter, Krefeld, Germany) before incubated (37°C, 2 h). The released phosphate was quantified using an external phosphate dilution series (10–200 µmol/L KH2PO4 in assay buffer) prepared on each plate and treated equally as the samples. The reaction was stopped by adding assay buffer (80 µL) to all samples except the phosphate dilution series. Aliquots of all samples (10 µL) were transferred to a clear 384-well plate (flat bottom, Greiner Bio-One GmbH) and malachite green reagent added (90 µL; mixture of malachite green in water (0.04%, w/v), ammonium molybdate (2%, w/w) in aqueous sulfuric acid (3.5 mol/L), and water at a ratio of 1:1:3.6, v/v/v). After 15 min, the absorbance was recorded at 620 nm on the […]™ microplate reader. The phosphate standard curve was fitted by a hyperbolic equation y = (ax)/(b + x) + c.

[6] = tested on: E. coli DnaK/DnaJ/GrpE-chaperone system; assay: as above; assay type: biochemical, Escherichia coli; settings: peptide screen, 0.3 mmol/L peptide; for ATPase activity of the E. coli DnaK/DnaJ/GrpE system, normalized to activity without peptide (100%): 37°C, 2 h, triplicates
Experimental: as §2

Compound | binding to S. aureus DnaK, FP-value normalized to ARV-1502 (S. aureus DnaK [1]) | binding to E. coli DnaK, FP-value normalized to ARV-1502 (E. coli DnaK [2]) | also measured
CC(C)C[C@H](NC(=O)[C@H](Cc1ccc(O)cc1)NC(=O)[C@@H]1CCCN1C(=O)[C@H](CCCNC(=N)N)NC(=O)[C@@H]1CCCN1C(=O)[C@H](Cc1ccccc1)NC(=O)[C@H](Cc1ccccc1)NC(=O)[C@@H]1CCCN1C(=O)[C@H](CCCNC(=N)N)NC(=O)C1(N)CCCCC1)C(=O)N[C@@H](CO)C(=O)N[C@@H](CCCNC(=N)N)C(=O)N1CCC[C@H]1C(=O)N[C@@H](CCCNC(=N)N)C(=O)N1CCC[C@H]1C(=O)N1CCC[C@H]1C(=O)N[C@@H](CCCNC(=N)N)C(=O)N1CCC[C@H]1C(=O)N[C@H](C(=O)N[C@@H](CCCNC(=N)N)C(N)=O)C(C)C [compound 99] (H-[Ac6c]RPFFPRPYLSRPRPPRPVR-NH2) | best binders | best binders | DnaK binding in the screening, in words (E. coli DnaK [2]; FP screening, DnaK variant not stated at the place): best binding
CC(C)C[C@H](NC(=O)[C@H](Cc1ccc(O)cc1)NC(=O)[C@@H]1CCCN1C(=O)[C@H](CCCNC(=N)N)NC(=O)[C@@H]1CCCN1C(=O)[C@H](CCCCN)NC(=O)[C@H](CCCCN)NC(=O)[C@@H]1CCCN1C(=O)[C@H](CCCNC(=N)N)NC(=O)C1(N)CCCCC1)C(=O)N1CCC[C@H]1C(=O)N[C@@H](CCCNC(=N)N)C(=O)N1CCC[C@H]1C(=O)N[C@@H](CCCNC(=N)N)C(=O)N1CCC[C@H]1C(=O)N1CCC[C@H]1C(=O)N[C@@H](CCCNC(=N)N)C(=O)N1CCC[C@H]1C(=O)N[C@H](C(=O)N[C@@H](CCCNC(=N)N)C(N)=O)C(C)C [peptide 2] (H-[Ac6c]RPKKPRPYLPRPRPPRPVR-NH2) | – | – | Ki (E. coli DnaK [3]): 0.6 µM
CC(C)C[C@H](NC(=O)[C@H](Cc1ccc(O)cc1)NC(=O)[C@@H]1CCCN1C(=O)[C@H](CCCNC(=N)N)NC(=O)[C@@H]1CCCN1C(=O)[C@H](CCCCN)NC(=O)[C@H](CCCCN)NC(=O)[C@@H]1CCCN1C(=O)[C@H](CCCNC(=N)N)NC(=O)C1(N)CCCCC1)C(=O)N1CCC[C@H]1C(=O)N[C@@H](Cc1ccccc1)C(=O)N1CCC[C@H]1C(=O)N[C@@H](CCCNC(=N)N)C(=O)N1CCC[C@H]1C(=O)N1CCC[C@H]1C(=O)N[C@@H](CCCNC(=N)N)C(=O)N1CCC[C@H]1C(=O)N[C@H](C(=O)N[C@@H](CCCNC(=N)N)C(N)=O)C(C)C [compound 46] (H-[Ac6c]RPKKPRPYLPFPRPPRPVR-NH2) | – | – | Ki (S. aureus DnaK [4]): 15.6 µM; Ki (E. coli DnaK [3]): 0.66 µM
Chex-RPDKPRPKSPRPRPPRPVR-NH2 [compound 122, substituted analog of ARV-1502] | bound neither | bound neither | –
Chex-RPDKPRPDLPRDRPPRPVR-NH2 [compound 117, substituted analog of ARV-1502] | – | – | increase of ATPase activity, S. aureus chaperone system [5]: ≥ 60%; ATPase activity of the E. coli DnaK/DnaJ/GrpE system, normalized to activity without peptide (100%) [6]: below 60%
Chex-RPFFPRPSLPRPRPPRPVR-NH2 [compound 91, substituted analog of ARV-1502] | best binders | best binders | –
Chex-RPDDPRPYLPRDRPPRPVR-NH2 [compound 68, substituted analog of ARV-1502] | – | – | decrease of ATPase activity, E. coli chaperone system [6]: 50%
Chex-RPDKPRPDKPRPRPPRPVR-NH2 [compound 108, substituted analog of ARV-1502] | bound neither | bound neither | –
CC(C)C[C@H](NC(=O)[C@H](Cc1ccc(O)cc1)NC(=O)[C@@H]1CCCN1C(=O)[C@H](CCCNC(=N)N)NC(=O)[C@@H]1CCCN1C(=O)[C@H](Cc1ccccc1)NC(=O)[C@H](Cc1ccccc1)NC(=O)[C@@H]1CCCN1C(=O)[C@H](CCCNC(=N)N)NC(=O)C1(N)CCCCC1)C(=O)N1CCC[C@H]1C(=O)N[C@@H](CCCNC(=N)N)C(=O)N[C@@H](CCCCN)C(=O)N[C@@H](CCCNC(=N)N)C(=O)N1CCC[C@H]1C(=O)N1CCC[C@H]1C(=O)N[C@@H](CCCNC(=N)N)C(=O)N1CCC[C@H]1C(=O)N[C@H](C(=O)N[C@@H](CCCNC(=N)N)C(N)=O)C(C)C [peptide 105] (H-[Ac6c]RPFFPRPYLPRKRPPRPVR-NH2) | best binders | best binders | –
Chex-RPDKPRPDDPRPRPPRPVR-NH2 [compound 107, substituted analog of ARV-1502] | – | – | increase of ATPase activity, S. aureus chaperone system [5]: ≥ 60%
CC(C)C[C@H](NC(=O)[C@H](CO)NC(=O)[C@@H]1CCCN1C(=O)[C@H](CCCNC(=N)N)NC(=O)[C@@H]1CCCN1C(=O)[C@H](CCCCN)NC(=O)[C@H](CC(=O)O)NC(=O)[C@@H]1CCCN1C(=O)[C@H](CCCNC(=N)N)NC(=O)C1(N)CCCCC1)C(=O)N1CCC[C@H]1C(=O)N[C@@H](Cc1ccccc1)C(=O)N1CCC[C@H]1C(=O)N[C@@H](CCCNC(=N)N)C(=O)N1CCC[C@H]1C(=O)N1CCC[C@H]1C(=O)N[C@@H](CCCNC(=N)N)C(=O)N1CCC[C@H]1C(=O)N[C@H](C(=O)N[C@@H](CCCNC(=N)N)C(N)=O)C(C)C [compound 130] (H-[Ac6c]RPDKPRPSLPFPRPPRPVR-NH2) | – | – | Ki (S. aureus DnaK [4]): 8.46 µM
Chex-RPDKPRPDLPRSRPPRPVR-NH2 [compound 119, substituted analog of ARV-1502] | – | – | ATPase activity of the S. aureus DnaK/DnaJ/GrpE system, normalized to activity without peptide (100%) [5]: more than 160%
Chex-RPFFPRPYLPRSRPPRPVR-NH2 [compound 106, substituted analog of ARV-1502] | best binders | best binders | –
Chex-RPDDPRPYLPLPRPPRPVR-NH2 [compound 66, substituted analog of ARV-1502] | – | – | decrease of ATPase activity, E. coli chaperone system [6]: at least 40%; ATPase activity of the E. coli DnaK/DnaJ/GrpE system, normalized to activity without peptide (100%) [6]: below 60%
Chex-RPDKPRPYSPLPRPPRPVR-NH2 [compound 172, substituted analog of ARV-1502] | best binders | – | –
Chex-RPDKPRPYSPDPRPPRPVR-NH2 [compound 170, substituted analog of ARV-1502] | best binders | – | –
Chex-RPFFPRPYLPSPRPPRPVR-NH2 [compound 101, substituted analog of ARV-1502] | best binders | best binders | –
Chex-RPDDPRPDLPRPRPPRPVR-NH2 [compound 53, substituted analog of ARV-1502] | – | – | increase of ATPase activity, S. aureus chaperone system [5]: ≥ 60%
Chex-RPDKPRPYKPDPRPPRPVR-NH2 [compound 160, substituted analog of ARV-1502] | best binders | – | –
Chex-RPDKPRPSLPRSRPPRPVR-NH2 [compound 133, substituted analog of ARV-1502] | best binders | – | –
Chex-RPSSPRPYLPSPRPPRPVR-NH2 [compound 83, substituted analog of ARV-1502] | – | – | ATPase activity of the S. aureus DnaK/DnaJ/GrpE system, normalized to activity without peptide (100%) [5]: more than 160%
Chex-RPDDPRPKLPRPRPPRPVR-NH2 [compound 54, substituted analog of ARV-1502] | best binders | – | –
Chex-RPDKPRPSLDRPRPPRPVR-NH2 [compound 128, substituted analog of ARV-1502] | – | – | ATPase activity of the E. coli DnaK/DnaJ/GrpE system, normalized to activity without peptide (100%) [6]: below 60%
Chex-RPFFPRPKLPRPRPPRPVR-NH2 [compound 90, substituted analog of ARV-1502] | best binders | best binders | –

Source: paper PMC8864165, “Functional Effects of ARV-1502 Analogs Against Bacterial Hsp70 and Implications for Antimicrobial Activity” (Frontiers in Chemistry, 2022)
